Assay results reported in patent US11884638B2, “Compound or salt thereof, composition for cysteine detection, fluorescent probe and composition for diagnosing cancer containing the same, method for detecting cysteine, method for providing information for diagnosing cancer, and method for producing compound” (Industry-Academic Cooperation Group of Kyung Hee University, priority 2021, dated 2024).

Columns and labels:
[1] = Fluorescence spectral analysis of Compound 1 in urine derived from cervical cancer patients; parameters: species or system human; settings: Compound 1 100 μM, urines N=100 versus normal N=308, 37° C. 40 minutes
Method: Specifically, fluorescence spectral analysis was performed immediately after treatment of the urines with Compound 1 (black line). After stirring at 37° C. for 40 minutes, fluorescence spectral analysis was performed (red line). […]

[2] = Fluorescence emission of Compound 1 with cysteine added to non-pretreated urine; parameters: species or system human
Method: In order to confirm the reaction of Compound 1 with cysteine in urine, non-pretreated urine (198 μL) was treated with varying concentrations (1 to 120 ng/μL) of cysteine, and then treated with Compound 1 (100 μM). The resulting urines were stirred in a stirrer at 37° C. for 40 minutes, and the fluorescence spectra were measured (excitation wavelength: 488 nm). In addition, Compound 1 was used after dissolution in a DMSO solution at 10 mM, and the amount of DMSO in the final solvent condition was controlled to be the same for each container (less than 1%).
Specifically, a spectro-fluorophotometer (SHIMADZU Corp. RF-6000, Japan) was used to analyze the emission spectrum, and the glass cuvette used for fluorescence measurement was a standard quartz cell (internal volume=[…], Hellma Analytics, Jena, Germany) having a thickness of 1 cm on all sides. In addition, a chamber (WUV-L10, DAIHAN Scientific) capable of excitation at a wavelength of 365 nm was used to visually observe the fluorescence change.
When the urine was treated with compound 1 (100 μM) and cysteine (60 ng/μL or higher), fluorescence changes were visible without a separate fluorescence measurement device. Although fluorescence changes were not visible when the urine was treated with Compound 1 (100 μM) and cysteine (concentration of 10 ng/μL or lower), examination was made as to whether fluorescence changes in this treatment could be confirmed using a fluorescence measurement device (FIG. 1(b)). Referring to FIG. 1(b), significant fluorescence changes could be obtained in the presence of 1 ng/μL of cysteine in urine, and statistical data thereon are shown below.

[3] = Fluorescence spectral analysis of Compound 1 in urines from patients with other diseases including cancer; parameters: species or system human; settings: Compound 1 100 μM, 37° C. 40 minutes
From the text: The urines used in the experiment were collected from urolithiasis patients (B, N=162), kidney cancer patients (C, N=162), prostate cancer patients (D, N=162), bladder cancer patients (E, N=162), cervical cancer patients (F, N=100), diabetic patients (G, N=100), pituitary cancer patients (H, N=100), adrenal cancer patients (I, N=100), lung cancer patients (J, N=100), ovarian cancer patients (K, N=100), pancreatic and biliary tract cancer patients (L, N=100), and pancreatic cancer patients (M, N=100). In the measurement method, each of the collected urine (198 μL) and Compound 1 (100 μM) were mixed together, the fluorescence spectra thereof were measured, and the highest fluorescence intensity value was taken. Then, each mixture was stirred at 37° C. for 40 minutes, and the highest fluorescence intensity value obtained from the fluorescence spectra was taken. The difference between the fluorescence intensity values before and after the reaction was shown as a bar graph.

[4] = Binding selectivity of Compound 1 to cysteine in urine by fluorescence change; settings: 37° C. 40 minutes, excitation 488 nm; for selectivity of fluorescence change among biomolecules detectable in urine: each biomolecule 100 μM (cysteine, glutathione, aspartic acid, glutamine, lysine, arginine, adenosine triphosphate, sucrose, ammonium), FIG. 2(b)
Method: Specifically, in order to determine whether Compound 1 selectively binds to cysteine in urine, cysteine and N-ethylmaleimide (NEM) (500 μM) capable of lowering cysteine concentration in urine were used. In addition, glutathione, aspartic acid, glutamine, lysine, arginine, adenosine triphosphate, sucrose, and ammonium used in the experiment were products obtained from TCI (Tokyo Chemical Industry Co., Ltd), Sigma Aldrich, and Alfa Company. The concentration of each biomolecule was equally measured at 100 μM. In addition, in order to obtain fluorescence spectra and values, Compound 1 and an unknown sample were stirred at 37° C. for 40 minutes and then excited at a wavelength of 488 nm.
The types of biomolecules indicated on the x-axis of FIG. 2(b) are as follows, and the following Probe 1 corresponds to Compound 1: • (A) Probe 1; • (B) Probe 1 with L-cysteine; • (C) Probe 1 with L-glutathione; • (D) Probe 1 with L-aspartic acid; • (E) Probe 1 with L-glutamine; • (F) Probe 1 with L-lysine; • (G) Probe 1 with L-arginine; • (H) Probe 1 with adenosine triphosphate; • (I) Probe 1 with sucrose; • (J) Probe 1 with ammonium.

In the case of `O=[N+]([O-])c1ccc(Oc2c(F)c(F)c(F)c(F)c2F)c2nonc12` [Compound 1, 4-nitro-7-(Perfluorophenoxy)benzo[c][1,2,5]oxadiazole], the “fluorescence values after reaction in urines derived from cervical cancer patients” value [1] was “high fluorescence values”, the “cysteine concentration at which fluorescence changes were visible without a separate fluorescence measurement device” value ([2]; normal urine, Compound 1 100 μM, 37° C. 40 minutes, excitation at 365 nm) was no less than 60 ng/µL and the “cysteine concentration at which fluorescence changes were not visible” value ([2]; normal urine, Compound 1 100 μM, 37° C. 40 minutes, excitation at 365 nm, by eye) was no more than 10 ng/µL. For the same molecule, the “cysteine concentration in urine giving significant fluorescence changes using a fluorescence measurement device” value ([2]; urine, Compound 1 100 μM, 37° C. 40 minutes, excitation 488 nm) was 1 ng/µL, the “wavelength of fluorescence turn-on upon binding to cysteine” value ([2]; when bound to cysteine) was roughly 550 nm and the “patient group with the largest fluorescence emission effect” value ([3]; cervical cancer patients (F) compared with the other patient groups) was “greatest in the case of cervical cancer patients”. For the same molecule, the “fluorescence emission (difference of highest fluorescence intensity before and after reaction) in patient urines” value ([3]; urines of urolithiasis (B), cervical cancer (F), adrenal cancer (I), ovarian cancer (K), pancreatic and biliary tract cancer (L) patients) was “noticeable fluorescence emission was observed”, the “fluorescence value in urine containing cysteine” value ([4]; FIG. 2(a)) was “high fluorescence value” and the “fluorescence value on co-treatment with N-ethylmaleimide which reduces cysteine” value ([4]; N-ethylmaleimide 500 μM, urine, FIG. 2(a)) was “fluorescence value decreased”. The “selectivity of fluorescence change among biomolecules detectable in urine” value [4] was “significant fluorescence change could be observed only for cysteine” and the “selectivity of fluorescence change among biomolecules detectable in urine” value ([4]; listed as 4-nitro-7-(perfluorophenoxy)benzo[c][1,2,5]oxadiazole) was “selectively detect cysteine in urine without interference of other biomolecules”.
